In patent US7807439B2, “Staphylococcus aureus-specific detection media and identifying and/or counting method using same” (Biomerieux S.A., priority 2001, dated 2010):

Columns and labels:
Assay in all cases: Experiment 1: chromogenic α-glucosidase substrates in gelled medium, colony coloration
Conditions in all cases: substrate 100 mg/l
S. epidermidis 009 = type: cell-based, Staphylococcus epidermidis; parameters: key to I (intensity of coloration): 0 corresponds to a lack of activity; 0.1 corresponds to the presence of a trace of coloration; 0.5 corresponds to the presence of a very pale coloration; 1 corresponds to the presence of a clear coloration of weak intensity; 1.5 corresponds to the presence of a coloration which is intermediate between colorations 1 and 2; 2 corresponds to the presence of a true coloration of medium intensity; 2.5 corresponds to the presence of a coloration which is intermediate between colorations 2 and 3; 3 corresponds to the presence of an intense coloration; 3.5 corresponds to the presence of a coloration which is intermediate between colorations 3 and 4; 4 corresponds to the presence of a very intense coloration; key to C (coloration of the colonies): —: the symbol “−” is synonymous with a lack of colour or intensity
Description: (§1) The α-glucosidase substrates are solubilized in dimethyl sulfoxide at a concentration of 200 g/l. A sufficient volume to obtain a final concentration of substrate of 100 mg/l is added to the four molten media. Microorganisms derived from the bioMérieux internal collection were seeded onto each one of the media, on their own as three dials, using a suspension at 0.5 MacFarland. However, results obtained with microorganisms derived from collections available to the public, ATCC or NCTC for example, would give identical results. The dishes were incubated at 37° C. for 48 hours. The colonies were examined visually after an incubation time of 24 and 48 hours. The coloration and also the intensity of this coloration were noted.
(§2) In table 2 below, as in the tables which will follow, C represents the coloration of the colonies after incubation, I represents the intensity of this coloration, the symbol “−” is synonymous with a lack of colour or intensity, and, finally, TI defines the incubation time. It should be noted that the intensity of the coloration is an arbitrary scale, but which is common to all the biological samples and all the media tested. This scale is valid for this experiment and also for all the experiments which will follow. It can be defined in the following way: • 0 corresponds to a lack of activity, • 0.1 corresponds to the presence of a trace of coloration, • 0.5 corresponds to the presence of a very pale coloration, • 1 corresponds to the presence of a clear coloration of weak intensity, • 1.5 corresponds to the presence of a coloration which is intermediate between colorations 1 and 2, • 2 corresponds to the presence of a true coloration of medium intensity, • 2.5 corresponds to the presence of a coloration which is intermediate between colorations 2 and 3, • 3 corresponds to the presence of an intense coloration • 3.5 corresponds to the presence of a coloration which is intermediate between colorations 3 and 4, • 4 corresponds to the presence of a very intense coloration.

S. xylosus 008 = type: cell-based, Staphylococcus xylosus; parameters: key to I (intensity of coloration): 0 corresponds to a lack of activity; 0.1 corresponds to the presence of a trace of coloration; 0.5 corresponds to the presence of a very pale coloration; 1 corresponds to the presence of a clear coloration of weak intensity; 1.5 corresponds to the presence of a coloration which is intermediate between colorations 1 and 2; 2 corresponds to the presence of a true coloration of medium intensity; 2.5 corresponds to the presence of a coloration which is intermediate between colorations 2 and 3; 3 corresponds to the presence of an intense coloration; 3.5 corresponds to the presence of a coloration which is intermediate between colorations 3 and 4; 4 corresponds to the presence of a very intense coloration; key to C (coloration of the colonies): —: the symbol “−” is synonymous with a lack of colour or intensity
Description: as §1, §2

S. intermedius 075 = type: cell-based, Staphylococcus intermedius; parameters: key to I (intensity of coloration): 0 corresponds to a lack of activity; 0.1 corresponds to the presence of a trace of coloration; 0.5 corresponds to the presence of a very pale coloration; 1 corresponds to the presence of a clear coloration of weak intensity; 1.5 corresponds to the presence of a coloration which is intermediate between colorations 1 and 2; 2 corresponds to the presence of a true coloration of medium intensity; 2.5 corresponds to the presence of a coloration which is intermediate between colorations 2 and 3; 3 corresponds to the presence of an intense coloration; 3.5 corresponds to the presence of a coloration which is intermediate between colorations 3 and 4; 4 corresponds to the presence of a very intense coloration; key to C (coloration of the colonies): —: the symbol “−” is synonymous with a lack of colour or intensity
Description: as §1, §2

S. aureus 276 = type: cell-based, Staphylococcus aureus; parameters: key to I (intensity of coloration): 0 corresponds to a lack of activity; 0.1 corresponds to the presence of a trace of coloration; 0.5 corresponds to the presence of a very pale coloration; 1 corresponds to the presence of a clear coloration of weak intensity; 1.5 corresponds to the presence of a coloration which is intermediate between colorations 1 and 2; 2 corresponds to the presence of a true coloration of medium intensity; 2.5 corresponds to the presence of a coloration which is intermediate between colorations 2 and 3; 3 corresponds to the presence of an intense coloration; 3.5 corresponds to the presence of a coloration which is intermediate between colorations 3 and 4; 4 corresponds to the presence of a very intense coloration
Description: as §1, §2

S. aureus 004 = type: cell-based, Staphylococcus aureus; parameters: key to I (intensity of coloration): 0 corresponds to a lack of activity; 0.1 corresponds to the presence of a trace of coloration; 0.5 corresponds to the presence of a very pale coloration; 1 corresponds to the presence of a clear coloration of weak intensity; 1.5 corresponds to the presence of a coloration which is intermediate between colorations 1 and 2; 2 corresponds to the presence of a true coloration of medium intensity; 2.5 corresponds to the presence of a coloration which is intermediate between colorations 2 and 3; 3 corresponds to the presence of an intense coloration; 3.5 corresponds to the presence of a coloration which is intermediate between colorations 3 and 4; 4 corresponds to the presence of a very intense coloration
Description: as §1, §2

S. aureus 070 = type: cell-based, Staphylococcus aureus; parameters: key to I (intensity of coloration): 0 corresponds to a lack of activity; 0.1 corresponds to the presence of a trace of coloration; 0.5 corresponds to the presence of a very pale coloration; 1 corresponds to the presence of a clear coloration of weak intensity; 1.5 corresponds to the presence of a coloration which is intermediate between colorations 1 and 2; 2 corresponds to the presence of a true coloration of medium intensity; 2.5 corresponds to the presence of a coloration which is intermediate between colorations 2 and 3; 3 corresponds to the presence of an intense coloration; 3.5 corresponds to the presence of a coloration which is intermediate between colorations 3 and 4; 4 corresponds to the presence of a very intense coloration
Description: as §1, §2

S. saprophyticus 064 = type: cell-based, Staphylococcus saprophyticus; parameters: key to I (intensity of coloration): 0 corresponds to a lack of activity; 0.1 corresponds to the presence of a trace of coloration; 0.5 corresponds to the presence of a very pale coloration; 1 corresponds to the presence of a clear coloration of weak intensity; 1.5 corresponds to the presence of a coloration which is intermediate between colorations 1 and 2; 2 corresponds to the presence of a true coloration of medium intensity; 2.5 corresponds to the presence of a coloration which is intermediate between colorations 2 and 3; 3 corresponds to the presence of an intense coloration; 3.5 corresponds to the presence of a coloration which is intermediate between colorations 3 and 4; 4 corresponds to the presence of a very intense coloration; key to C (coloration of the colonies): —: the symbol “−” is synonymous with a lack of colour or intensity
Description: as §1, §2

Row | Compound | C (coloration of the colonies) (S. epidermidis 009; TI 24 h) | I (intensity of coloration) (S. epidermidis 009; TI 24 h) | C (coloration of the colonies) (S. epidermidis 009; TI 48 h) | I (intensity of coloration) (S. epidermidis 009; TI 48 h) | C (coloration of the colonies) (S. xylosus 008; TI 24 h) | I (intensity of coloration) (S. xylosus 008; TI 24 h) | C (coloration of the colonies) (S. xylosus 008; TI 48 h) | I (intensity of coloration) (S. xylosus 008; TI 48 h) | C (coloration of the colonies) (S. intermedius 075; TI 24 h) | I (intensity of coloration) (S. intermedius 075; TI 24 h) | C (coloration of the colonies) (S. intermedius 075; TI 48 h) | I (intensity of coloration) (S. intermedius 075; TI 48 h) | C (coloration of the colonies) (S. aureus 276; TI 24 h) | I (intensity of coloration) (S. aureus 276; TI 24 h) | C (coloration of the colonies) (S. aureus 276; TI 48 h) | I (intensity of coloration) (S. aureus 276; TI 48 h) | C (coloration of the colonies) (S. aureus 004; TI 24 h) | I (intensity of coloration) (S. aureus 004; TI 24 h) | C (coloration of the colonies) (S. aureus 004; TI 48 h) | I (intensity of coloration) (S. aureus 004; TI 48 h) | also measured
1 | 5-bromo-4-chloro-3-indoxyl-α-D-glucoside [X-a-GLU] | — | 0 | turquoise | 1 | turquoise | 0.5 | turquoise | 1.5 | turquoise | 0.5 | turquoise | 2 | turquoise | 2 | turquoise | 2 | turquoise | 1 | turquoise | 2 | C (coloration of the colonies) (S. aureus 070; TI 24 h): turquoise; I (intensity of coloration) (S. aureus 070; TI 24 h): 1.5; C (coloration of the colonies) (S. aureus 070; TI 48 h): turquoise; I (intensity of coloration) (S. aureus 070; TI 48 h): 1.5; C (coloration of the colonies) (S. saprophyticus 064; TI 24 h): —; I (intensity of coloration) (S. saprophyticus 064; TI 24 h): 0; C (coloration of the colonies) (S. saprophyticus 064; TI 48 h): turquoise; I (intensity of coloration) (S. saprophyticus 064; TI 48 h): 0.5
2 | OC[C@H]1O[C@H](Oc2c[nH]c3cc(Br)ccc23)[C@H](O)[C@@H](O)[C@@H]1O [Red “A” a-GLU, 6-Bromo-3-indoxyl-α-D-glucoside] | — | 0 | — | 0 | — | 0 | pink | 2.5 | — | 0 | pink | 1.5 | pink | 2 | pink | 2 | pink | 0.5 | pink | 2.5 | C (coloration of the colonies) (S. aureus 070; TI 24 h): pink; I (intensity of coloration) (S. aureus 070; TI 24 h): 2; C (coloration of the colonies) (S. aureus 070; TI 48 h): pink; I (intensity of coloration) (S. aureus 070; TI 48 h): 2.5; C (coloration of the colonies) (S. saprophyticus 064; TI 24 h): —; I (intensity of coloration) (S. saprophyticus 064; TI 24 h): 0; C (coloration of the colonies) (S. saprophyticus 064; TI 48 h): —; I (intensity of coloration) (S. saprophyticus 064; TI 48 h): 0
3 | OC[C@H]1O[C@H](Oc2c[nH]c3cc(Cl)ccc23)[C@H](O)[C@@H](O)[C@@H]1O [Pink-a-GLU, 6-Chloro-3-indoxyl-α-D-glucoside] | — | 0 | — | 0 | — | 0 | pink | 0.5 | — | 0 | pink | 0.5 | pink | 1.5 | pink | 1.5 | pink | 1 | pink | 1 | C (coloration of the colonies) (S. aureus 070; TI 24 h): pink; I (intensity of coloration) (S. aureus 070; TI 24 h): 2; C (coloration of the colonies) (S. aureus 070; TI 48 h): pink; I (intensity of coloration) (S. aureus 070; TI 48 h): 2; C (coloration of the colonies) (S. saprophyticus 064; TI 24 h): —; I (intensity of coloration) (S. saprophyticus 064; TI 24 h): 0; C (coloration of the colonies) (S. saprophyticus 064; TI 48 h): —; I (intensity of coloration) (S. saprophyticus 064; TI 48 h): 0
